Assay results published in PubChem BioAssay AID588440 (The Scripps Research Institute Molecular Screening Center, 2011).
Activity calls are given as the source filed them.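 How the source made its calls: active means half-maximal cytotoxic concentration at or below 10 µM; inactive means the rest.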

Tested on: HEK293 LDH release cytotoxicity, resorufin fluorescence
Assay: membrane integrity loss in HEK cells – cell-based, fluorescence, cytotoxicity control for IDE activator project, dose response (AID 588440)

**Q.** C#CCOCCOCCOCCNc1nc(N2CCN(C(=O)CCCCCCCCCCNC(=O)[C@H](CO)n3cc(CCCSC)nn3)CC2)nc(N2CCN(C(=O)CCCCCCCCCCNC(=O)[C@H](CCCCN)n3cc(CCO)nn3)CC2)n1 was tested. Which CC50 did it give?
**A.** The CC50 was 20.8 µM (inactive).

**Q.** With C#CCOCCOCCOCCNc1nc(N2CCN(C(=O)CCCCCCCCCCNC(=O)[C@H]([C@@H](C)CC)n3cc(CCCCN=C(N)N)nn3)CC2)nc(N2CCN(C(=O)CCCCCCCCCCNC(=O)[C@@H]([C@H](C)O)n3cc(C)nn3)CC2)n1 as the compound, how does the CC50 read?
**A.** Its CC50 is 6.37 µM.

**Q.** With C#CCOCCOCCOCCNc1nc(N2CCN(C(=O)CCCCCCCCCCNC(=O)[C@H]([C@@H](C)CC)n3cc(CCCCCN)nn3)CC2)nc(N2CCN(C(=O)CCCCCCCCCCNC(=O)[C@H]([C@@H](C)CC)n3cc(CCCCN=C(N)N)nn3)CC2)n1 as the compound, how does the CC50 read?
**A.** Its CC50 is 2.07 µM.

**Q.** Which CC50 does the source give for C#CCOCCOCCOCCNc1nc(N2CCN(C(=O)CCCCCCCCCCNC(=O)[C@@H](CCSC)n3cc(CCO)nn3)CC2)nc(N2CCN(C(=O)CCCCCCCCCCNC(=O)[C@H](CO)n3cc(CCCCCN)nn3)CC2)n1 here?
**A.** The CC50 was 12.6 µM (inactive).

**Q.** For C#CCOCCOCCOCCNc1nc(N2CCN(C(=O)CCCCCCCCCCNC(=O)[C@H](CCCCN)n3cc(CCO)nn3)CC2)nc(N2CCN(C(=O)CCCCCCCCCCNC(=O)[C@H](CCCN=C(N)N)n3cc(C[C@@H](C)CC)nn3)CC2)n1, which CC50 is on record?
**A.** The CC50 was 5.63 µM.

**Q.** C#CCOCCOCCOCCNc1nc(N2CCN(C(=O)CCCCCCCCCCNC(=O)Cn3cc(CCCCCN)nn3)CC2)nc(N2CCN(C(=O)CCCCCCCCCCNC(=O)Cn3cc(C[C@@H](C)O)nn3)CC2)n1 was tested. Which CC50 did it give?
**A.** Its CC50 is 16.4 µM (inactive).

**Q.** C#CCOCCOCCOCCNc1nc(N2CCN(C(=O)CCCCCCCCCCNC(=O)Cn3cc(CCCCCN)nn3)CC2)nc(N2CCN(C(=O)CCCCCCCCCCNC(=O)[C@H]([C@@H](C)CC)n3cc(CCCCCN)nn3)CC2)n1 was tested. Which CC50 did it give?
**A.** The CC50 was 5.97 µM.

**Q.** With C#CCOCCOCCOCCNc1nc(N2CCN(C(=O)CCCCCCCCCCNC(=O)Cn3cc(CCCCCN)nn3)CC2)nc(N2CCN(C(=O)CCCCCCCCCCNC(=O)[C@H](CO)n3cc(CCCSC)nn3)CC2)n1 as the compound, how does the CC50 read?
**A.** The CC50 was 17.4 µM (inactive).

**Q.** How did the CC50 turn out when C#CCOCCOCCOCCNc1nc(N2CCN(C(=O)CCCCCCCCCCNC(=O)Cn3cc(C[C@@H](C)O)nn3)CC2)nc(N2CCN(C(=O)CCCCCCCCCCNC(=O)[C@H](CCCN=C(N)N)n3cc(C[C@@H](C)CC)nn3)CC2)n1 was run?
**A.** The CC50 was 7.28 µM.
